Experimental findings from patent US8741954B2, “Synergistic enhancement of calcium propionate” (ViraTox, L.L.C., priority 2007, dated 2014) are described below.

The subject of experiment [1] is Aspergillus niger (ATCC #6275), Chaetomium globosum (ATCC #6205) and Aspergillus terreus (ATCC #10690) suspensions. Kind of experiment: TAPPI T 487 pm-99 fungal resistance of treated paper. The format is cell-based. The settings on record: treated Whatman paper coupons, 28° C., 21 day test, observed weekly. As for the experimental part: This method is used to determine the resistance of paper and paperboard to fungal growth in ideally suited controlled conditions of light, temperature, moisture, and food supply. Treated 50 mm test coupons of paper are placed on a surface of test agar, flooded with a test inoculum of fungal spores, and incubated to determine fungal resistance. The rating that is provided follows an established protocol to determine the degree of mold growth on a rating scale reported as 1) not fungal resistant; 2) moderately fungal resistant; and 3) resistant.
Challenges of treated porous surfaces, represented by selected samples of untreated paper product specified as Whatman filter paper #4 and paper product specified as Whatman filter paper #4 treated with a solution of fungicides, are exposed to designated fungal suspensions known to cause failure under certain use conditions. The test samples are prepared according to T 487 pm-99 by aseptically removing pre-sterilized 50 mm paper coupons, previously equilibrated to room temperature, and then placed in a controlled chamber at 28+/−1° C. (82.40 F) and 95%-98% RH. The chamber is fitted with a tray filled with a salt solution to maintain humidity control. The test ensues continuously for 21 days and samples are observed weekly. The panels are rated each week according to the appearance of fungal growth.
This series of tests according to the TAPPI T 487 pm-99 protocol were conducted with multiple specimens of treated and untreated (Control) paper substrates with the specified fungal species of Aspergillus niger (ATCC #6275), Chaetomium globosum (ATCC #6205), and Aspergillus terreus (ATCC #10690) suspensions. The suspensions of inoculum were harvested from 14 day potato dextrose agar cultures into sterile water, combining the culture suspensions from each fungal genus and adjusting to concentrations of 10^6/ml. Triplicate substrate samples were then prepared from sheets of cellulose fiber papers (Whatman) cut into 50 mm squares and steam sterilized. The sterilized paper coupons were immersed in a solution of each challenge solution, allowed to soak for ten minutes, removed and placed into aluminum drying trays in a drying oven for 24 hours at 67° C. The test papers were placed onto the surface of prepared agar plates containing mineral-salt agar as outlined in T 487 pm-99. Two plies of paper were treated as a single test specimen and were directly pipetted with 1 ml of fungal suspension on the surface of each test coupon. The plates were then inverted and placed into humid incubation chambers and incubated at 28° C.+/−1 C for 21 days. Observations for growth were conducted on successive weekly schedules as well as verification of test inocula to distinguish contaminants or naturally occurring molds from actual challenge organisms. Growth was defined as sporulating, hyphael appearances directly from the paper substrate. The following comparative table depicts the various solutions and resistance results: […]

The test system of experiment [2] is suspension of fungal spores of Chaetomium globosum ATCC #6205, Aspergillus niger ATCC #6275 and Aspergillus terreus ATCC #10690. The experiment in a line: Disk diffusion method of determining susceptibility of fungi (developed from the Kirby-Bauer method). The experiment is classed as cell-based. As for the experimental part:
A disk diffusion method of determining susceptibility of fungi to Maquat 2525M 50% was developed from the Kirby-Bauer Bactericidal Disk Diffusion Method. […] This method was utilized as a screening method to achieve a rapid means of fungal inhibition after 5 days of incubation.
The inoculum was composed of a suspension of fungal spores harvested from one week cultures of ATCC #6205-Chaetomium globosum; ATCC #6275-Aspergillus niger; and, ATCC #10690-Aspergillus terreus. Once the plates were seeded with inoculum, DIFCO Concentration Disks (¼″) were impregnated with a 0.5% solution of Maquat 2525M 50%, allowed to air dry in sterile petri dishes and placed at equidistant locations on each plate. At the end of the five day incubation at 30° C., 5 plates containing four disks each were examined visually and microscopically.
(In agar diffusion tests the substance spreads into inoculated agar from a disc or well.)

Structures are written as SMILES.

With `CCC(=O)O` [1.5% propionic acid, propionic acid], in experiment [1], the “Days in Incubation” value is 9 days and the “Resistance Grade” value is recorded as “Not resistant”.
Turning to `CCCCCCCCCCCCCCCC[n+]1ccccc1` [1.25% cetylpyridinium chloride, cetylpyridinium chloride], the “Days in Incubation” value in experiment [1] amounted to 15 days.
Turning to `c1ccc2[nH]c(-c3cscn3)nc2c1` [Thiabendazole (TBZ) 1.0% Merck AgVet, Thiabendazole], in experiment [1], the “Days in Incubation” value was 17 days and the “Resistance Grade” value is recorded as “Moderately resistant”.
Take `CCC(=O)[O-].CCC(=O)[O-].[Ca+2]` [calcium propionate]: the “Resistance grade of specimens” value in experiment [2] (DIFCO disks impregnated with solution (Maquat 0.5%, calcium propionate 2.5%, sodium carboxymethylcellulose 0.5%, cetylpyridinium chloride 0.125%), potato dextrose agar, 5 days at 30° C.) was “No Resistance”. In addition, the “Growth on disks, visual and microscopic examination” value in experiment [2] (after the 5 day incubation period) was “occluded with profuse growth”. In experiment [1], the “Days in Incubation” value is 8 days and the “Resistance Grade” value is listed as “Not resistant”.
